From patent publication US8211901B2, “Naphthamide derivatives as multi-target protein kinase inhibitors and histone deacetylase inhibitors” (Shenzhen Chipscreen Biosciences Ltd., priority 2009, dated 2012)
Values belong to the compound of their own block, whether it stands above or below them.

What was measured:
[1] = system: A-498; test: Tumor cell proliferation (MTS), A-498; type: cell-based; settings: Homo sapiens, A498; 72 hours, complete medium
Experimental: (§1) Measurement of In Vivo Cell Proliferation:
(§2) Tumor cells were trypsinized and plated into 96-well plates at 3,000 per well and incubated in complete medium with 10% FBS for 24 hours. Compounds were added over a final concentration range of 100 μmol/L to 100 nmol/L in 0.1% DMSO and incubated for 72 hours in complete medium. The effects on proliferation were determined by addition of MTS reagent (Promega) according to the instruction, incubation for 2 hours at 37° C. in CO2 incubator, and record the absorbance at 490 nm using an ELISA plate reader.

[2] = system: MCF-7; test: Tumor cell proliferation (MTS), MCF-7; type: cell-based; settings: Homo sapiens, MCF7; 72 hours, complete medium
Experimental: as §1, §2
(§3) Human Cell Lines are Listed Below:
MCF-7: Mammary gland adenocarcinoma

[3] = system: Bel-7402; test: Tumor cell proliferation (MTS), Bel-7402; type: cell-based; settings: Homo sapiens, 72 hours, complete medium
Experimental: as §1, §2, §3
Bel-7402: Hepatocellular carcinoma

[4] = system: Class I HDAC; test: P21 reporter gene assay in HeLa cells; type: cell-based; settings: 24 hours
Experimental: HDAC subtype selectivity inhibition assay of tested compounds was carried out by several reporter gene assays experiments. Briefly, HeLa cells were seeded in 96-well plates the day before transfection to give a confluence of 50-80%. Cells were transfected with one of reporter gene plasmid containing a promoter sequence or response element upstream of a luciferase gene construct using FuGene6 transfection reagent according to the manufacturer's instruction (Roche). The promoters or response elements including p21-promoter was fused upstream to the luciferase gene reporter construct. For normalizing the transfection efficiency, a GFP expression plasmid was cotransfected. Cells were allowed to express protein for 24 hours followed by addition of individual compounds or the vehicle (DMSO). 24 hours later the cells were harvested, and the luciferase assay and GFP assay were performed using corresponding assay kits according to the manufacturer's instructions (Promega).

[5] = system: HCT-8; test: Tumor cell proliferation (MTS), HCT-8; type: cell-based; settings: Homo sapiens, 72 hours, complete medium
Experimental: as §1, §2, §3
HCT-8: Ileocecal colorectal adenocarcinoma

[6] = system: A549; test: Tumor cell proliferation (MTS), A549; type: cell-based; settings: Homo sapiens, 72 hours, complete medium
Experimental: as §1, §2, §3
A549: Non small cell lung carcinoma

[7] = system: HUVEC cells; test: VEGF dependent cell proliferation (MTS); type: cell-based; settings: Homo sapiens, VEGF 165 50 ng/ml, 72 hours, serum-free medium, read-out: GI50 nM (VEGF ligand-dependent cell proliferation)
Experimental: VEGF Dependent Cell Proliferation:
HUVEC cells were plated into 96-well plates at 6,000 per well and incubated with serum-free medium for 2 hours. Compounds and VEGF 165 (50 ng/ml) were added and incubated for 72 hours in serum-free medium. The effects on proliferation were determined by addition of MTS reagent (Promega) according to the instruction, incubation for 2 hours at 37° C. in CO2 incubator, and record the absorbance at 490 nm using an ELISA plate reader.

[8] = target: T1, human PDGFRβ (Homo sapiens, UniProt P09619); test: PDGF dependent cell proliferation (MTS); type: cell-based; settings: PDGFRβ NIH-3T3 cells, PDGF BB 50 ng/ml, 72 hours, serum-free medium; read-out: GI50 nM (PDGF ligand-dependent cell proliferation)
T1 construct: expressed in transfected cells
T1 sequence (P09619 33-1106): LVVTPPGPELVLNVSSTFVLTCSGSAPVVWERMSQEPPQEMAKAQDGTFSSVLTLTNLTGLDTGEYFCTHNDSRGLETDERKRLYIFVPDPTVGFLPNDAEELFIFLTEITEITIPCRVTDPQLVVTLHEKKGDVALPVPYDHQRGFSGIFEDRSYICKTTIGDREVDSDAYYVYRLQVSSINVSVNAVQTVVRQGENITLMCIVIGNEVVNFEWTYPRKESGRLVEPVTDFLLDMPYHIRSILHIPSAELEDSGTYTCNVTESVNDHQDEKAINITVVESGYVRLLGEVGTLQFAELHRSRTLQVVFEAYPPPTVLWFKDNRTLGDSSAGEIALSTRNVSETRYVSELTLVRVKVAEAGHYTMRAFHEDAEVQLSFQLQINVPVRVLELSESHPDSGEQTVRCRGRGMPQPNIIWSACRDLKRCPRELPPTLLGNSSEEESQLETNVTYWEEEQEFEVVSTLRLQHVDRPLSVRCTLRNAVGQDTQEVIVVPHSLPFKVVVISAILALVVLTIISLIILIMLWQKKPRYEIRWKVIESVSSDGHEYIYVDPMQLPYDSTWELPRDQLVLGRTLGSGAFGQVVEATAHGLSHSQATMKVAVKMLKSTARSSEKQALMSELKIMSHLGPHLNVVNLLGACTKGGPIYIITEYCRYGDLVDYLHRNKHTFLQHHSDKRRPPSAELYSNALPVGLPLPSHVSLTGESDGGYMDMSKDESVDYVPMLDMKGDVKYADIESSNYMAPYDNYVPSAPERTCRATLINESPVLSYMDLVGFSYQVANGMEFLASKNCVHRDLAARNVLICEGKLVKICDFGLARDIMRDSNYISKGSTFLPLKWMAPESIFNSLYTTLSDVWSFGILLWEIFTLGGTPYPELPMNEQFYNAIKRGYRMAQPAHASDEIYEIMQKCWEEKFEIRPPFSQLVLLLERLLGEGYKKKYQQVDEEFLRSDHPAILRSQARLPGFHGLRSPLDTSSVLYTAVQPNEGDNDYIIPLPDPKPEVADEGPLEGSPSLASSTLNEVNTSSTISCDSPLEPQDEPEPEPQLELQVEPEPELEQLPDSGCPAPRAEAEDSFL
Experimental: PDGF Dependent Cell Proliferation:
NIH-3T3 mouse fibroblasts cell line engineered to stably express human PDGFIRβ was constructed and used to evaluate PDGF dependent cell proliferation. PDGFRβ NIH-3T3 cells were plated into 96-well plates at 5,000 per well and incubated with serum-free medium for 24 hours. Compounds and PDGF BB (50 ng/ml) were added and incubated for 72 hours in serum-free medium. The effects on proliferation were determined by addition of MTS reagent (Promega) according to the instruction, incubation for 2 hours at 37° C. in CO2 incubator, and record the absorbance at 490 nm using an ELISA plate reader.

[9] = system: total HDAC enzyme (HeLa extract); test: In vitro inhibition of total HDAC enzyme activity (HDAC Fluorimetric Assay/Drug Discovery Kit); type: biochemical
Experimental: Measurement of In Vitro Inhibition of Total HDAC Enzyme Activity:
The in vitro inhibition of total HDAC enzyme was determined by HDAC Fluorimetric Assay/Drug Discovery Kit (BIOMOL) according to manufacture's instruction. • 1. Add Assay buffer, diluted trichostatin A or test inhibitor to appropriate wells of the microtiter plate. Following table lists examples of various assay types and the additions required for each test.
• 2. Add diluted HeLa extract or other HDAC sample to all wells except those that are to be “No Enzyme Controls” (Blank). • 3. Allow diluted Fluor de Lys™ Substrate and the samples in the microtiter plate to equilibrate to assay temperature (25° C.). • 4. Initiate HDAC reactions by adding diluted substrate (25 μl) to each well and mixing thoroughly. • 5. Allow HDAC reactions to proceed for desired length of time and then stop them by addition of Fluor de Lys™ Developer (50 μl). Incubate plate at room temperature (25° C.) for 10-15 min. • 6. Read samples in a microtiter-plate reading fluorimeter capable of excitation at a wavelength in the range 350-380 nm and detection of emitted light in the range 440-460 nm. Measurement of In Vivo Inhibition of HDAC Subtype Activity: […]

[10] = Body weight in HCT-8 xenograft study (Example 55); type: in vivo, nu/nu mice
Experimental: The antitumor activity of compound 33 and compound 37 were measured in human HCT-8 colon cancer xenograft model. The female nu/nu mice of 18˜20 g were fed by normal diet for 3 days. Then the cultured HCT-8 human colon cancer cells were implanted into the armpit of 50 mice. […] One group was treated with vehicle. One group was treated with sutent, the positive control drug. Two groups were treated with compound 33. The other two groups were treated with compound 37. Compound 33 was administered twice a day with an interval of 6 hours. Other drugs and vehicle were administered once a day. Each group was dosed orally for 20 days. Tumor volumes as established by caliper measurements were recorded twice per week, along with body weights. At the end of study, the mice were killed, and tumors were weighed. The tumor growth inhibition of each group was calculated using the formula {[(the average tumor weight of vehicle group)−(the average tumor weight of drug group)]/(the average tumor weight of vehicle group)}×100%.

[11] = Body weight in SSMC7721 xenograft study (Example 56); type: in vivo, nu/nu mice
Experimental: The antitumor activity of compound 33 and compound 37 were measured in human SSMC7721 liver cancer xenograft model. The female nu/nu mice of 18˜20 g were fed by normal diet for 3 days. Then the cultured SSMC7721 human liver cancer cells were implanted into the armpit of 50 mice. […] Each group has 8 mice. One group was treated with vehicle. One group was treated with sutent, the positive control drug. Two groups were treated with compound 33. The other two groups were treated with compound 37. Each group was dosed orally once a day for 30 days. Tumor volumes as established by caliper measurements were recorded twice per week, along with body weights. At the end of study, the mice were killed, and tumors were weighed. The tumor growth inhibition of each group was calculated using the formula {[(the average tumor weight of vehicle group)−(the average tumor weight of drug group)]/(the average tumor weight of vehicle group)}×100%.

[12] = 30 mg/kg orally once a day for 20 days
[13] = 60 mg/kg orally once a day for 20 days
[14] = 30 mg/kg orally once a day for 30 days
[15] = 60 mg/kg orally once a day for 30 days

Compound: Nc1cc(F)ccc1NC(=O)c1ccc(CNC(=O)/C=C/c2cccnc2)cc1 [CS055, Chidamide, reference compound]
GI50 [1]: 12.1 µM
GI50 [2]: 3.87 µM
GI50 [3]: 18.9 µM
Class I HDAC (P21 reporter assay) Fold Induction at 10 μM [4]: 33 Fold
GI50 [5]: 7.71 µM
GI50 [6]: 11.2 µM

Compound: COc1cc2ncnc(Oc3ccc4c(C(=O)Nc5ccccc5N)cccc4c3)c2cc1OC [Example 16, N-(2-aminophenyl)-6-(6,7-dimethoxyquinazolin-4-yloxy)-1-naphthamide]
GI50 [7]: 3 nM
GI50 [1]: ≥ 30 µM
GI50 [2]: 30 µM
GI50 [3]: 30 µM
Class I HDAC (P21 reporter assay) Fold Induction at 10 μM [4]: 1.3 Fold
GI50 [8]: 48 nM
GI50 [5]: 12.3 µM
GI50 [6]: 30 µM
% inhibition of total HDAC enzyme activity at 30 μM [9]: 8.6%

Compound: COc1cc2ncnc(Oc3ccc4c(C(=O)Nc5ccc(F)cc5N)cccc4c3)c2cc1OC [Example 17, N-(2-amino-4-fluorophenyl)-6-(6,7-dimethoxyquinazolin-4-yloxy)-1-naphthamide]
GI50 [7]: 3 nM
GI50 [1]: ≥ 30 µM
GI50 [2]: 30 µM
GI50 [3]: 30 µM
Class I HDAC (P21 reporter assay) Fold Induction at 10 μM [4]: 1.1 Fold
GI50 [8]: 40 nM
GI50 [5]: 3 µM
GI50 [6]: 30 µM
% inhibition of total HDAC enzyme activity at 30 μM [9]: 22.5%

Compound: COc1cc2ncnc(Oc3ccc4c(C(=O)NCc5ccc(C(=O)Nc6ccccc6N)cc5)cccc4c3)c2cc1OC [Example 23, N-(4-((2-aminophenyl)carbamoyl)benzyl)-6-(6,7-dimethoxyquinazolin-4-yloxy)-1-naphthamide]
GI50 [7]: 18 nM
GI50 [1]: 14.7 µM
GI50 [2]: 4.3 µM
GI50 [3]: 30 µM
Class I HDAC (P21 reporter assay) Fold Induction at 10 μM [4]: 11.3 Fold
GI50 [8]: 148 nM
GI50 [5]: 5.7 µM
GI50 [6]: 30 µM
% inhibition of total HDAC enzyme activity at 30 μM [9]: 49.4%

Compound: COc1cc2ncnc(Oc3ccc4c(C(=O)NCc5ccc(C(=O)Nc6ccccc6N)cn5)cccc4c3)c2cc1OC [Example 25]
GI50 [7]: 13 nM
GI50 [1]: 14.7 µM
GI50 [2]: 6.1 µM
GI50 [3]: 30 µM
Class I HDAC (P21 reporter assay) Fold Induction at 10 μM [4]: 12.1 Fold
GI50 [8]: 69 nM
GI50 [5]: 4.9 µM
GI50 [6]: 30 µM
% inhibition of total HDAC enzyme activity at 30 μM [9]: 47.9%

Compound: COc1ccc2c(Oc3ccc4c(C(=O)Nc5ccc(F)cc5N)cccc4c3)ccnc2c1 [Example 32, N-(2-amino-4-fluorophenyl)-6-(7-methoxyquinolin-4-yloxy)-1-naphthamide]
GI50 [7]: 2 nM
GI50 [1]: 7.5 µM
GI50 [2]: 15.9 µM
GI50 [3]: 17.3 µM
Class I HDAC (P21 reporter assay) Fold Induction at 10 μM [4]: 1.8 Fold
GI50 [8]: 20 nM
GI50 [5]: 6.6 µM
GI50 [6]: 8.3 µM
% inhibition of total HDAC enzyme activity at 30 μM [9]: 21.7%

Further lines, with some results ahead:

GI50 [1]: 9.1 µM
GI50 [2]: 13.3 µM
GI50 [3]: 19.5 µM
Class I HDAC (P21 reporter assay) Fold Induction at 10 μM [4]: 1.2 Fold
GI50 [8]: 5 nM
GI50 [5]: 8.9 µM
GI50 [6]: 7.7 µM
% inhibition of total HDAC enzyme activity at 30 μM [9]: 19.3%
Compound: COc1cc2nccc(Oc3ccc4c(C(=O)Nc5ccccc5N)cccc4c3)c2cc1OC [Example 35, N-(2-aminophenyl)-6-(6,7-dimethoxyquinolin-4-yloxy)-1-naphthamide]
GI50 [7]: 1 nM

GI50 [1]: 4.2 µM
GI50 [2]: 8.9 µM
GI50 [3]: 12.1 µM
Class I HDAC (P21 reporter assay) Fold Induction at 10 μM [4]: 1.2 Fold
GI50 [8]: 3 nM
GI50 [5]: 4.1 µM
GI50 [6]: 7.4 µM
% inhibition of total HDAC enzyme activity at 30 μM [9]: 14.4%
Compound: COc1cc2nccc(Oc3ccc4c(C(=O)Nc5ccc(F)cc5N)cccc4c3)c2cc1OC [Example 36, N-(2-amino-4-fluorophenyl)-6-(6,7-dimethoxyquinolin-4-yloxy)-1-naphthamide]
GI50 [7]: 2 nM

GI50 [1]: ≥ 30 µM
GI50 [2]: 30 µM
GI50 [3]: 30 µM
Class I HDAC (P21 reporter assay) Fold Induction at 10 μM [4]: 3.0 Fold
GI50 [8]: 159 nM
GI50 [5]: 30 µM
GI50 [6]: 30 µM
% inhibition of total HDAC enzyme activity at 30 μM [9]: 35.9%
Compound: COc1cc2nccc(Oc3ccc4c(C(=O)NCc5ccc(C(=O)Nc6ccccc6N)cc5)cccc4c3)c2cc1OC [Example 37, N-(4-((2-aminophenyl)carbamoyl)benzyl)-6-(6,7-dimethoxyquinolin-4-yloxy)-1-naphthamide]
Body weight (g) end [10, 12]: 23.6 ± 2.2 g
Body weight (g) start [10, 12]: 20.6 ± 0.8 g
Body weight (g) end [10, 13]: 24.1 ± 2.1 g
Body weight (g) start [10, 13]: 20.8 ± 0.8 g
GI50 [7]: 4 nM
Body weight (g) end [11, 14]: 25.3 ± 0.9 g
Body weight (g) start [11, 14]: 20.7 ± 1.2 g
Body weight (g) end [11, 15]: 24.3 ± 1.1 g
Body weight (g) start [11, 15]: 21.4 ± 0.6 g

GI50 [1]: 6.9 µM
GI50 [2]: 9.4 µM
GI50 [3]: 30 µM
Class I HDAC (P21 reporter assay) Fold Induction at 10 μM [4]: 3.1 Fold
GI50 [8]: 74 nM
GI50 [5]: 8 µM
GI50 [6]: 30 µM
% inhibition of total HDAC enzyme activity at 30 μM [9]: 39.3%
Compound: COc1cc2nccc(Oc3ccc4c(C(=O)NCc5ccc(C(=O)Nc6ccccc6N)cn5)cccc4c3)c2cc1OC [Example 38]
GI50 [7]: 25 nM
